The target in the assay is T1, PDE7 (type VII phosphodiesterase) (Homo sapiens, UniProt Q13946).
T1 construct: endogenous in cells; host or cells: MOLT-4 (ATCC CRL-1582), soluble fraction, HiTrapQ anion-exchange fraction
Nature of the assay: PDE7 inhibiting activity (3H-cAMP hydrolysis, active fraction from MOLT-4 cells). The format is biochemical. The settings on record: PDE7 fraction from MOLT-4 cells, 0.064 μM cAMP, 10 μM rolipram present, 2 hours at 25° C.; read-out: IC50 values for phosphodiesterase inhibiting activities (PDE7). A digest of the protocol:
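PDE7 from MOLT-4 cell soluble fraction, HiTrapQ NaCl-gradient purified. Compounds reacted 2 h at 25° C in 20 mM tris-HCl pH 7.5, 1 mM MgCl2, 0.1 μCi 3H-cAMP (0.064 μM cAMP), 10 μM rolipram, 5′-nucleotidase; QAE-Sephadex-separated supernatant counted.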

Consider eleven compounds from patent US7268128B2, “1,3,5-trisubstituted-5-phenyl and 5-pyridyl pyrazolopyrimidinone derivatives having PDE7 inhibiting action” (Ausbio Pharma Co., Ltd., priority 2001, dated 2007).

Where only a bound is given, the exact number is not on record here.

For orientation: IC50 means the concentration at which inhibition is half-maximal.

T1 sequence (Q13946 whole entry): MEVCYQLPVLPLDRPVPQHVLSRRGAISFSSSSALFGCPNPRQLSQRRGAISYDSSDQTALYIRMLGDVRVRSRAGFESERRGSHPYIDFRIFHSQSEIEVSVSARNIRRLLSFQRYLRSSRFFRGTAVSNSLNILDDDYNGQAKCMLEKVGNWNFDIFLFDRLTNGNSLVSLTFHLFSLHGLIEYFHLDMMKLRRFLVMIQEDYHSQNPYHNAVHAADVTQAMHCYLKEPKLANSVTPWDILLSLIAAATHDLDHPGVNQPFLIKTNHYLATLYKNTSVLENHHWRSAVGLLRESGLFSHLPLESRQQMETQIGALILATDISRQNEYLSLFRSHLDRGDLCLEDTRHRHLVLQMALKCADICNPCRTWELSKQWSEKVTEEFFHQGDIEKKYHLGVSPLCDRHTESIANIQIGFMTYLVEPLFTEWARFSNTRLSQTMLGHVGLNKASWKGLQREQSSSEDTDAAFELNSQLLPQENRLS

Consider `COc1cc(N2CCCS2(=O)=O)ccc1-c1nc2c(c(C3CCCCC3)nn2C)c(=O)[nH]1` [Example 155, 3-Cyclohexyl-6-[4-(1,1-dioxido-2-isothiazolidinyl)-2-methoxyphenyl]-1-methyl-1,5-dihydro-4H-pyrazolo[3,4-d]pyrimidin-4-one], for which the IC50 was not above 10 nM. The same measure for `COc1cc(S(=O)(=O)N(C)CCO)ccc1-c1nc2c(c(C3CCCCC3)nn2C)c(=O)[nH]1` [Example 156, 4-(3-Cyclohexyl-1-methyl-4-oxo-4,5-dihydro-1H-pyrazolo[3,4-d]pyrimidin-6-yl)-N-(2-hydroxyethyl)-3-methoxy-N-methylbenzenesulfonamide]: not above 1000 nM; for `COc1cc(S(=O)(=O)N(C)CCN(C)C)ccc1-c1nc2c(c(C3CCCCC3)nn2C)c(=O)[nH]1` [Example 158, 4-(3-Cyclohexyl-1-methyl-4-oxo-4,5-dihydro-1H-pyrazolo[3,4-d]pyrimidin-6-yl)-N-(2-(dimethylamino)ethyl)-3-methoxy-N-methylbenzenesulfonamide monomethanesulfonate]: not above 1000 nM; for `COc1cc(S(=O)(=O)NCCCO)ccc1-c1nc2c(c(C3CCCCC3)nn2C)c(=O)[nH]1` [Example 159, 4-(3-Cyclohexyl-1-methyl-4-oxo-4,5-dihydro-1H-pyrazolo[3,4-d]pyrimidin-6-yl)-N-(3-hydroxypropyl)-3-methoxybenzenesulfonamide]: not above 1000 nM.

As to `COc1cc(S(=O)(=O)N2CCCNCC2)ccc1-c1nc2c(c(C3CCCCC3)nn2C)c(=O)[nH]1` [Example 161, 3-Cyclohexyl-6-[4-(1,4-diazepan-1-ylsulfonyl)-2-methoxyphenyl]-1-methyl-1,5-dihydro-4H-pyrazolo[3,4-d]pyrimidin-4-one monomethanesulfonate], the IC50 is not above 1000 nM. Under `COc1cc(S(=O)(=O)N2CCCN(C)CC2)ccc1-c1nc2c(c(C3CCCCC3)nn2C)c(=O)[nH]1` [Example 163, 3-Cyclohexyl-6-{2-methoxy-4-[(4-methyl-1,4-diazepan-1-yl)sulfonyl]phenyl}-1-methyl-1,5-dihydro-4H-pyrazolo[3,4-d]pyrimidin-4-one monomethanesulfonate] stands not above 10 nM; under `COc1cc(S(=O)(=O)N2CCC(O)C2)ccc1-c1nc2c(c(C3CCCCC3)nn2C)c(=O)[nH]1` (centres unmarked) [Example 164, 3-Cyclohexyl-6-{4-[(3-hydroxy-1-pyrrolidinyl)sulfonyl]-2-methoxyphenyl}-1-methyl-1,5-dihydro-4H-pyrazolo[3,4-d]pyrimidin-4-one], not above 1000 nM; under `COc1cc(S(=O)(=O)N2CCSCC2)ccc1-c1nc2c(c(C3CCCCC3)nn2C)c(=O)[nH]1` [Example 165, 3-Cyclohexyl-6-[2-methoxy-4-(4-thiomorpholinylsulfonyl)phenyl]-1-methyl-1,5-dihydro-4H-pyrazolo[3,4-d]pyrimidin-4-one], not above 1000 nM.

For the compound `CNC1CCN(S(=O)(=O)c2ccc(-c3nc4c(c(C5CCCCC5)nn4C)c(=O)[nH]3)c(OC)c2)CC1` [Example 169, 3-Cyclohexyl-6-(2-methoxy-4-{[4-(methylamino)-1-piperidinyl]sulfonyl}phenyl)-1-methyl-1,5-dihydro-4H-pyrazolo[3,4-d]pyrimidin-4-one monomethanesulfonate], the IC50 was not above 1000 nM. For `COc1cc(S(=O)(=O)N2CCC(N)C2)ccc1-c1nc2c(c(C3CCCCC3)nn2C)c(=O)[nH]1` (centres unmarked) [Example 172, 6-{4-[(3-Amino-1-pyrrolidinyl)sulfonyl]-2-methoxyphenyl}-3-cyclohexyl-1-methyl-1,5-dihydro-4H-pyrazolo[3,4-d]pyrimidin-4-one monomethanesulfonate], the IC50 is not above 1000 nM. The same measure for `COc1cc(S(=O)(=O)N2CCC(N)CC2)ccc1-c1nc2c(c(C3CCCCC3)nn2C)c(=O)[nH]1` [Example 175, 6-{4-[(4-Amino-1-piperidinyl)sulfonyl]-2-methoxyphenyl}-3-cyclohexyl-1-methyl-1,5-dihydro-4H-pyrazolo[3,4-d]pyrimidin-4-one monomethanesulfonate]: not above 1000 nM.
